# US11382918B2, “Methods for treating Huntington's Disease” (PTC Therapeutics, Inc., priority 2017, dated 2022)
# Where a name gives a salt, the structure may show the parent alone.
# Tested on: Endogenous Huntingtin Protein (HTT)
# Test: Endogenous Huntingtin Protein Assay (ELISA-based MSD electrochemiluminescence)
# Assay type: cell-based
# Conditions: Table 1
# Protocol: Compounds of Formula (I) were tested using the Meso Scale Discovery (MSD) Assay provided in International Application No. PCT/US2016/066042, filed on Dec. 11, 2016 and claiming priority to U.S. Provisional Application 62/265,652 filed on Dec. 10, 2015, published as International Publication No. WO 2017/100726 on Jun. 15, 2017, the entire contents of which are incorporated herein by reference.
# The Endogenous Huntingtin Protein assay used in Example 1 was developed using the ELISA-based MSD electrochemiluminescence assay platform.
# Endogenous Huntingtin Protein Assay
# Meso Scale Discovery (MSD) 96-well or 384-well plates were coated overnight at 4° C. with MW1 (expanded polyglutamine) or MAB2166 monoclonal antibody (for capture) at a concentration of 1 μg/mL in PBS (30 μL per well). Plates were then washed three times with 300 µL wash buffer (0.05% Tween-20 in PBS) and blocked (100 μL blocking buffer; 5% BSA in PBS) for 4-5 hours at room temperature with rotational shaking and then washed three times with wash buffer.
# Samples (25 μL) were transferred to the antibody-coated MSD plate and incubated overnight at 4° C. After removal of the lysates, the plate was washed three times with wash buffer, and 25 μL of #5656S (Cell signaling; rabbit monoclonal) secondary antibody (diluted to 0.25 μg/mL in 0.05% Tween-20 in blocking buffer) was added to each well and incubated with shaking for 1 Hour at room temperature. Following incubation with the secondary antibody, the wells were rinsed with wash buffer after which 25 μL of goat anti-rabbit SULFO TAG secondary detection antibody (required aspect of the MSD system) (diluted to 0.25 μg/mL in 0.05% Tween-20 in blocking buffer) was added to each well and incubated with shaking for 1 hour at room temperature. After rinsing three times with wash buffer, 150 μL of read buffer T with surfactant (MSD) were added to each empty well, and the plate was imaged on a SI 6000 imager (MSD) according to manufacturers' instructions provided for 96- or 384-well plates.
row,IC50,SMILES
1,3000 to 33000 nM,"Cc1cn2cc(-c3ccc4nc(N5CCNCC5)cc(=O)n4c3)cc(F)c2n1 [compound 268, 7-(8-fluoro-2-methylimidazo[1,2-a]pyridin-6-yl)-2-(piperazin-1-yl)-4H-pyrido[1,2-a]pyrimidin-4-one]"
2,500 to 1000 nM,"Cc1cn2cc(-c3cc(=O)n4cc(N5CCN(C)CC5)ccc4n3)cc(F)c2n1 [compound 269, 2-(8-fluoro-2-methylimidazo[1,2-a]pyridin-6-yl)-7-(4-methylpiperazin-1-yl)-4H-pyrido[1,2-a]pyrimidin-4-one]"
3,1000 to 3000 nM,"Cc1cn2cc(-c3cc(=O)n4cc(N5CCN6CCC[C@H]6C5)ccc4n3)cc(F)c2n1 [compound 271, 2-(8-fluoro-2-methylimidazo[1,2-a]pyridin-6-yl)-7-[(8aS)-hexahydropyrrolo[1,2-a]pyrazin-2(1H)-yl]-4H-pyrido[1,2-a]pyrimidin-4-one]"
4,500 to 1000 nM,"Cc1cn2cc(-c3cc(=O)n4cc(N5CCN6CCC[C@@H]6C5)ccc4n3)cc(F)c2n1 [compound 272, 2-(8-fluoro-2-methylimidazo[1,2-a]pyridin-6-yl)-7-[(8aR)-hexahydropyrrolo[1,2-a]pyrazin-2(1H)-yl]-4H-pyrido[1,2-a]pyrimidin-4-one]"
5,100 to 500 nM,"Cc1cn2cc(-c3cc(=O)n4cc(N5CCNCC5)ccc4n3)cc(Cl)c2n1 [compound 287, 2-(8-chloro-2-methylimidazo[1,2-a]pyridin-6-yl)-7-(piperazin-1-yl)-4H-pyrido[1,2-a]pyrimidin-4-one]"
6,100 to 500 nM,"Cc1nc2c(F)cc(-c3cc(=O)n4cc(N5CCNCC5)ccc4n3)cc2o1 [compound 305, 2-(4-fluoro-2-methyl-1,3-benzoxazol-6-yl)-7-(piperazin-1-yl)-4H-pyrido[1,2-a]pyrimidin-4-one]"
7,100 to 500 nM,"Cc1nc2c(F)cc(-c3cc(=O)n4cc(N5CCN[C@@H](C)C5)ccc4n3)cc2o1 [compound 306, 2-(4-fluoro-2-methyl-1,3-benzoxazol-6-yl)-7-[(3S)-3-methylpiperazin-1-yl]-4H-pyrido[1,2-a]pyrimidin-4-one]"
8,500 to 1000 nM,"Cc1nc2c(F)cc(-c3cc(=O)n4cc(N5CCN(C)CC5)ccc4n3)cc2o1 [compound 308, 2-(4-fluoro-2-methyl-1,3-benzoxazol-6-yl)-7-(4-methylpiperazin-1-yl)-4H-pyrido[1,2-a]pyrimidin-4-one]"
9,1000 to 3000 nM,"CCN1CCN(c2ccc3nc(-c4cc(F)c5nc(C)oc5c4)cc(=O)n3c2)CC1 [compound 309, 7-(4-ethylpiperazin-1-yl)-2-(4-fluoro-2-methyl-1,3-benzoxazol-6-yl)-4H-pyrido[1,2-a]pyrimidin-4-one]"
10,3000 to 33000 nM,"Cc1cn2nc(-c3cc(=O)n4cc(N5CCN6CCC[C@H]6C5)ccc4n3)cc2c(C)n1 [compound 336, 2-(4,6-dimethylpyrazolo[1,5-a]pyrazin-2-yl)-7-[(8aS)-hexahydropyrrolo[1,2-a]pyrazin-2(1H)-yl]-4H-pyrido[1,2-a]pyrimidin-4-one]"
11,3000 to 33000 nM,"Cc1cn2nc(-c3cc(=O)n4cc(N5CCN6CCC[C@@H]6C5)ccc4n3)cc2c(C)n1 [compound 337, 2-(4,6-dimethylpyrazolo[1,5-a]pyrazin-2-yl)-7-[(8aR)-hexahydropyrrolo[1,2-a]pyrazin-2(1H)-yl]-4H-pyrido[1,2-a]pyrimidin-4-one]"
12,3000 to 33000 nM,"Cc1cn2nc(-c3cc(=O)n4cc(N5C[C@@H]6C[C@H]5CN6C)ccc4n3)cc2c(C)n1 [compound 400, 2-(4,6-dimethylpyrazolo[1,5-a]pyrazin-2-yl)-7-[(1S,4S)-5-methyl-2,5-diazabicyclo[2.2.1]hept-2-yl]-4H-pyrido[1,2-a]pyrimidin-4-one]"
13,3000 to 33000 nM,"CCN1C[C@@H]2C[C@H]1CN2c1ccc2nc(-c3cc4c(C)nc(C)cn4n3)cc(=O)n2c1 [compound 401, 2-(4,6-dimethylpyrazolo[1,5-a]pyrazin-2-yl)-7-[(1S,4S)-5-ethyl-2,5-diazabicyclo[2.2.1]hept-2-yl]-4H-pyrido[1,2-a]pyrimidin-4-one]"
14,1000 to 3000 nM,"Cc1cn2cc(-c3ccc4nc(C5CCNCC5)cc(=O)n4c3)ccc2n1 [compound 409, 7-(2-methylimidazo[1,2-a]pyridin-6-yl)-2-(piperidin-4-yl)-4H-pyrido[1,2-a]pyrimidin-4-one]"
15,500 to 1000 nM,"Cc1cn2cc(-c3ccc4nc(C5CCNCC5)cc(=O)n4c3)cc(F)c2n1 [compound 410, 7-(8-fluoro-2-methylimidazo[1,2-a]pyridin-6-yl)-2-(piperidin-4-yl)-4H-pyrido[1,2-a]pyrimidin-4-one]"
16,3000 to 33000 nM,"Cc1cn2cc(-c3cc(=O)n4cc(N5CCN(C6CC6)CC5)ccc4n3)cc(F)c2n1 [compound 412, 7-(4-cyclopropylpiperazin-1-yl)-2-(8-fluoro-2-methylimidazo[1,2-a]pyridin-6-yl)-4H-pyrido[1,2-a]pyrimidin-4-one]"
17,1000 to 3000 nM,"Cc1cn2nc(-c3cc(=O)n4cc(N5CCNCC5)ccc4n3)cc2cn1 [compound 420, 2-(6-methylpyrazolo[1,5-a]pyrazin-2-yl)-7-(piperazin-1-yl)-4H-pyrido[1,2-a]pyrimidin-4-one]"

# The next lines start with the molecule.
row,SMILES,IC50
1,"Cc1nc2ccc(-c3cc(=O)n4cc(N5CCNCC5)ccc4n3)cc2s1 [compound 219, 2-(2-methyl-1,3-benzothiazol-6-yl)-7-(piperazin-1-yl)-4H-pyrido[1,2-a]pyrimidin-4-one]",3000 to 33000 nM
2,"O=c1cc(-c2cccnc2)nc2ccc(N3CCNCC3)cn12 [compound 228, 7-(piperazin-1-yl)-2-(pyridin-3-yl)-4H-pyrido[1,2-a]pyrimidin-4-one]",3000 to 33000 nM
3,"COc1cncc(-c2cc(=O)n3cc(N4CCNCC4)ccc3n2)c1 [compound 229, 2-(5-methoxypyridin-3-yl)-7-(piperazin-1-yl)-4H-pyrido[1,2-a]pyrimidin-4-one]",3000 to 33000 nM
4,"Cc1cn2nc(-c3cc(=O)n4cc(N5CCN(C)[C@@H](C)C5)ccc4n3)cc2c(C)n1 [compound 258, 7-[(3S)-3,4-dimethylpiperazin-1-yl]-2-(4,6-dimethylpyrazolo[1,5-a]pyrazin-2-yl)-4H-pyrido[1,2-a]pyrimidin-4-one]",3000 to 33000 nM
5,"Cc1cn2nc(-c3cc(=O)n4cc(N5C[C@@H](C)N(C)[C@@H](C)C5)ccc4n3)cc2c(C)n1 [compound 259, 2-(4,6-dimethylpyrazolo[1,5-a]pyrazin-2-yl)-7-[(3R,5S)-3,4,5-trimethylpiperazin-1-yl]-4H-pyrido[1,2-a]pyrimidin-4-one]",3000 to 33000 nM
6,"COc1ccc(-c2cc(=O)n3cc(N4CCC(N(C)C)CC4)cc(C)c3n2)cc1OC [compound 261, 2-(3,4-dimethoxyphenyl)-7-[4-(dimethylamino)piperidin-1-yl]-9-methyl-4H-pyrido[1,2-a]pyrimidin-4-one]",3000 to 33000 nM
7,"Cc1nc2ccc(-c3cc(=O)n4cc(C5=CCNCC5)ccc4n3)cc2o1 [compound 302, 2-(2-methyl-1,3-benzoxazol-6-yl)-7-(1,2,3,6-tetrahydropyridin-4-yl)-4H-pyrido[1,2-a]pyrimidin-4-one]",100 to 500 nM
8,"CCN1CC=C(c2ccc3nc(-c4cc(F)c5nc(C)oc5c4)cc(=O)n3c2)CC1 [compound 318, 7-(1-ethyl-1,2,3,6-tetrahydropyridin-4-yl)-2-(4-fluoro-2-methyl-1,3-benzoxazol-6-yl)-4H-pyrido[1,2-a]pyrimidin-4-one]",1000 to 3000 nM
9,"Cc1cn2nc(-c3cc(=O)n4cc(C5=CCN(C)CC5)ccc4n3)cc2c(C)n1 [compound 350, 2-(4,6-dimethylpyrazolo[1,5-a]pyrazin-2-yl)-7-(1-methyl-1,2,3,6-tetrahydropyridin-4-yl)-4H-pyrido[1,2-a]pyrimidin-4-one]",3000 to 33000 nM
10,"CCN1CC=C(c2ccc3nc(-c4cc5c(C)nc(C)cn5n4)cc(=O)n3c2)CC1 [compound 351, 2-(4,6-dimethylpyrazolo[1,5-a]pyrazin-2-yl)-7-(1-ethyl-1,2,3,6-tetrahydropyridin-4-yl)-4H-pyrido[1,2-a]pyrimidin-4-one]",3000 to 33000 nM
11,"Cc1cn2nc(-c3cc(=O)n4cc(C5=CCN(C6CCC6)CC5)ccc4n3)cc2c(C)n1 [compound 356, 7-(1-cyclobutyl-1,2,3,6-tetrahydropyridin-4-yl)-2-(4,6-dimethylpyrazolo[1,5-a]pyrazin-2-yl)-4H-pyrido[1,2-a]pyrimidin-4-one]",3000 to 33000 nM
12,"Cc1cn2cc(-c3cc(=O)n4cc(C5=CCNCC5)ncc4n3)cc2c(C)n1 [compound 413, 2-(1,3-dimethylpyrrolo[1,2-a]pyrazin-7-yl)-7-(1,2,3,6-tetrahydropyridin-4-yl)-4H-pyrazino[1,2-a]pyrimidin-4-one hydrochloride (1:2)]",< 100 nM
13,"Cc1nc2ccc(-c3cc(=O)n4cc(C5=CCNCC5)ncc4n3)cc2o1 [compound 421, 2-(2-methyl-1,3-benzoxazol-6-yl)-7-(1,2,3,6-tetrahydropyridin-4-yl)-4H-pyrazino[1,2-a]pyrimidin-4-one hydrochloride(1:1)]",3000 to 33000 nM
